Source: patent US8834929B2, “Drying of drug-containing particles” (Bend Research, Inc., priority 2006, dated 2014)
≈ marks a conversion by molar mass, not a printed value.

How the values were obtained:
[1] = Aqueous solubility of the drug; format: physicochemical
[2] = In vitro dissolution test (microcentrifuge, PBS pH 6.5); format: physicochemical; details: PBS pH 6.5, 290 mOsm/kg, 37° C., 3000 μg/mL Drug 3 if all dissolved; Dispersion 4 before secondary drying; crystalline drug alone
Description: A sample of Dispersion 4 was evaluated before and after secondary drying in an in vitro dissolution test to determine the effect of drying on concentration enhancement. For this test, a sufficient amount of Dispersion 4 was added to microcentrifuge test tubes so that the concentration of Drug 3 would have been 3000 μg/mL had all of the drug had dissolved. The test was performed in duplicate. The tubes were placed in a 37° C. temperature-controlled chamber, and 1.8 mL PBS at pH 6.5 and 290 mOsm/kg was added to each tube. The samples were mixed using a vortex mixer for about 60 seconds. The samples were centrifuged at 13,000 G at 37° C. for 1 minute. The resulting supernatant solution was then sampled and diluted 1:6 (by volume) with methanol and then analyzed by high performance liquid chromatography (HPLC). The contents of each tube were mixed on the vortex mixer and allowed to stand undisturbed at 37° C. until the next sample was taken. Samples were collected at 4, 10, 20, 40, 90, and 1200 minutes. For comparison, crystalline Drug 3 alone was tested using the same procedures.
The concentrations of drug obtained in these samples were used to determine the maximum concentration of drug (MDC90) and the area under the concentration-versus-time curve (AUC90) during the initial 90 minutes.

| solubility [1] | AUC90 (area under the concentration-versus-time curve during the initial 90 minutes) [2] | MDC90 (maximum concentration of drug during the initial 90 minutes) [2] | Compound |
| --- | --- | --- | --- |
| ~80 µg/mL (≈ 175 µM) |  |  | O=C(N[C@@H](Cc1ccccc1)[C@H](O)C(=O)N1C[C@@H](O)[C@@H](O)C1)c1cc2cc(Cl)ccc2[nH]1 [Drug 1, 5-chloro-1H-indole-2-carboxylic acid [(1S)-benzyl-(2R)-hydroxy-3-((3R,4S)-dihydroxy-pyrrolidin-1-yl-)-3-oxypropyl]amide] |
| < 0.1 µg/mL |  |  | CCOC(=O)N1c2ccc(C(F)(F)F)cc2[C@@H](N(Cc2cc(C(F)(F)F)cc(C(F)(F)F)c2)C(=O)OC)C[C@H]1CC [Drug 2, torcetrapib, reference compound] |
| ~1600 µg/mL (≈ 3130 µM) | 9200 µg·min/mL | 112 µg/mL | C=CCNC(=O)[C@H]1N(C(=O)[C@@H](O)[C@H](Cc2ccccc2)NC(=O)c2cccc(O)c2C)CSC1(C)C [Drug 3, (4R)—N-allyl-3-{(2S,3S)-2-hydroxy-3-[(3-hydroxy-2-methylbenzoyl)amino]-4-phenylbutanoyl}-5,5-dimethyl-1,3-thiazolidine-4-carboxamide] |
